Experimental data as given in patent US7071168B2, “Anti-cancer compounds and methods related thereto” (The Regents of the University of Colorado, priority 1998, dated 2006).

System: SCLC strain SHP-77
Test: Colorimetric tetrazolium (MTT) assay for cell survival, SCLC strain SHP-77
Format: cell-based, human
Conditions: SCLC strain SHP-77 in vitro
Experimental: (§1) In general, Anti-bradykinin activity was determined by the classical guinea pig ileum assay and on Chinese hamster ovary (CHO) cells expressing cloned human bradykinin B2 receptors. Anti-tumor activity was determined on cultured human cancer cell lines using the standard tetrazolium (MTT) assay.
Cell growth and survival were measured by a rapid colorimetric assay based on the tetrazolium salt MTT (3-(4,5-dimethylthiazol-2-yl)-2,5-diphenyl tetrazolium bromide) (Mosmann, J Immunol. Methods 65: 55–63, 1983, with minor modifications). Briefly, 1,000 normal lung fibroblasts or normal epithelial BEAS-2B cells, 1,000 or 5,000 viable non-SCLC cells or 10,000 viable SCLC cells were plated in 100 μL of growth medium in 96-well flat-bottomed microtiter plates. Cells were incubated overnight to allow recovery. Compounds to be tested were added to the cells in triplicate in a range of concentrations and the cells were incubated at 37° C., 5% CO2, with 100% humidity. Control cells were treated in the same way without antagonists. […] Plates were incubated for 4 days, allowing sufficient time for cell replication and compound-induced cell death to occur. On day 5, 25 μL of a 2 mg/mL solution of MTT (Sigma) dissolved in RMPI-1640was added to each well. The plate was incubated for 4 h at 37° C. The supernate was removed and the blue formazan complex was dissolved by adding 100 μL of 0.02 N HCl in 75% isopropanol to all wells. Absorbance was immediately determined using a scanning multiwell plate reader. B9870 caused 50% cell death at a concentration of 0.15 μM under these conditions.

| Molecule | MTT: ED50 for killing of SCLC strain SHP-77 in vitro |
| --- | --- |
| CN(C)c1cccc2c(S(=O)(=O)NC(Cc3cc(I)c(OCc4c(Cl)cccc4Cl)c(I)c3)C(=O)N(C)C3CC(C)(C)NC(C)(C)C3)cccc12 (centres unmarked) [M666] | 1.3 µM |
| CC1(C)CC(NC(=O)C(Cc2ccc3ccccc3c2)NC(=O)OC(C)(C)C)CC(C)(C)N1 (centres unmarked) [M288A] | >85 µM |
| CC1(C)CC(NC(=O)C(NC(=O)C=Cc2ccc(N)cc2)C2Cc3ccccc3C2)CC(C)(C)N1 (centres unmarked) [M292] | 40 µM |
| CC1(C)CC(NC(=O)C(Cc2ccc3ccccc3c2)NC(=O)c2ccc(NC(=N)N)cc2)CC(C)(C)N1 (centres unmarked) [M306] | >100 µM |
| CC1(C)CC(NC(=O)C2CC3CCCCC3N2C(=O)C=Cc2c(F)c(F)c(F)c(F)c2F)CC(C)(C)N1 (centres unmarked) [M320] | 13 µM |
| CC1(C)CC(NC(=O)C(Cc2cccc3ccccc23)NC(=O)C(Cc2cnc[nH]2)NC(=O)CCCCCCCCCCC(=O)NC(Cc2cnc[nH]2)C(=O)NC(Cc2cccc3ccccc23)C(=O)NC2CC(C)(C)NC(C)(C)C2)CC(C)(C)N1 (centres unmarked) [M660] | 30 µM |
| CC1(C)CC(NC(=O)C(Cc2ccc(OCc3c(Cl)cccc3Cl)cc2)NC(=O)CN(CCN(CC(=O)NC(Cc2ccc(OCc3c(Cl)cccc3Cl)cc2)C(=O)NC2CC(C)(C)NC(C)(C)C2)CC(=O)NC(Cc2ccc(OCc3c(Cl)cccc3Cl)cc2)C(=O)NC2CC(C)(C)NC(C)(C)C2)CC(=O)NC(Cc2ccc(OCc3c(Cl)cccc3Cl)cc2)C(=O)NC2CC(C)(C)NC(C)(C)C2)CC(C)(C)N1 (centres unmarked) [M1040, EDTA-(OC2Y-ATMP)4] | 0.73 µM |
| CN(C)CCCNC(=O)[C@H](Cc1ccc2ccccc2c1)NC(=O)C=Cc1ccc(NC(=O)CCCCCCCCCCC(=O)Nc2ccc(C=CC(=O)N[C@@H](Cc3ccc4ccccc4c3)C(=O)NCCCN(C)C)cc2)cc1 [M538] | >80 µM |
| COC(=O)C(Cc1ccc(OCc2ccccc2)cc1)N(Cc1ccc(N(C)C)cc1)C(=O)C=Cc1c(F)c(F)c(F)c(F)c1F (centres unmarked) [M614] | 9.1 µM |
| CC1(C)CC(NC(=O)C(Cc2ccc(O)cc2)NC(=O)C=Cc2c(F)c(F)c(F)c(F)c2F)CC(C)(C)N1 (centres unmarked) [M316] | 50 µM |
| CC1(C)CC(NC(=O)[C@@H](NC(=N)CCCCCCCCCCCCC(=O)O)C2Cc3ccccc3C2)CC(C)(C)N1 [M280-1] | 21 µM |
| CC1(C)CC(NC(=O)C(Cc2ccc(-c3ccccc3)cc2)NC(=O)C=Cc2cccnc2)CC(C)(C)N1 (centres unmarked) [M296] | 15 µM |
| CCOC(=O)CN1C(C)(C)CC(NC(=O)C(Cc2ccc3ccccc3c2)NC(=O)C(C2CCCCC2)C2CCCCC2)CC1(C)C (centres unmarked) [M572] | 2.6 µM |
| O=C(C=Cc1c(F)c(F)c(F)c(F)c1F)NC(Cc1ccc2ccccc2c1)C(=O)NCc1cccnc1 (centres unmarked) [M466] | Inact |
| CC1(C)CC(NC(=O)C(Cc2csc3ccccc23)NC(=NC2CCCCC2)NC2CCCCC2)CC(C)(C)N1 (centres unmarked) [M440] | 30 µM |
| Cc1cc(NC(=O)c2cccc(NC(=O)CNC(=O)/C=C/c3cccnc3)c2)c2ccccc2n1 [M428] | >300 µM |
| CC1(C)CC(NC(=O)C2Cc3ccccc3CN2C(=O)C=Cc2c(F)c(F)c(F)c(F)c2F)CC(C)(C)N1 (centres unmarked) [M322] | 7.6 µM |
| O=C(CCCCCCCCCCC(=O)N[C@@H](Cc1cccnc1)C(=O)N[C@@H](Cc1ccc2ccccc2c1)C(=O)NC1CCCCC1)N[C@@H](Cc1cccnc1)C(=O)N[C@@H](Cc1ccc2ccccc2c1)C(=O)NC1CCCCC1 [M460] | 15 µM |

Same assay, conditions: Table 1; SHP-77, MTT, 4 days

| Molecule | MTT: ED50 for killing of SCLC strain SHP-77 in vitro |
| --- | --- |
| DDD-( DArg-Arg-Add-Ser-DIgl-Oic-Arg)2 [M862] | 1.3 µM |
| DDD-(DArg-Arg-Aud-Ser-DF5F-Oic-Arg)2 [M890] | 1.7 µM |
| Ac-Darg-Arg-Aud-DF5F-Oic-Arg [M868] | 55 µM |
| SBEC-(DArg-Arg-Eac-Ser-DF5F-Nc7G-Arg)2 [M1028] | 28 µM |
| DDD-(DIgl-hPhe-Arg)2 [M776] | 30 µM |
| DDD-(Eac-Arg-Digl-Oic-Arg)2 [B10198-2] | 15 µM |
| Aaa-Ser-Pac-hPhe-Arg [M752-5] | Inact |
| DDD-(DArg-PFF-Arg-NH2)2 [M818] | 60 µM |
| α-Lys-DArg-Arg-Pro-Hyp-Gly-Igl-Ser-DIgl-Oic-Arg Sub-Arg-DNMF-DTrp-Phe-DTrp-Leu [B9950] | 8 µM |
| Aaa-Pac-hPhe-Arg [M752-6] | Inact |
| ζ-SUB-(ApC-F5F-Arg)2 [M926] | Inact |
| DDD-(DArg-Arg-Aud-Pac-2Nal-DArg-NH2)2 [M710] | 1.7 µM |
| DDD-(DArg-hPhe-Arg-NH2)2 [M560] | 50 µM |
| Aaa-DArg-Arg-Aud-Ser-D5F5-Oic-Arg [M956] | 14 µM |
| Aca-DArg-Arg-Aud-Ser-D5F5-Oic-Arg [M960] | 21 µM |
| DArg-Arg-Aud-DIgl-PFF-Arg [M844] | 12 µM |

| Molecule | MTT: ED50 for killing of SCLC strain SHP-77 in vitro |
| --- | --- |
| Dmac-DArg-Arg-Aud-Ser-D5F5-Oic-Arg [M968] | 15 µM |
| DDD-(DArg-Arg-Aud-DIgl-hPhe-Arg)2 [M786] | 3.2 µM |
| Ac-OC2Y-Arg [M784] | Inact |
| Cin-hPhe-Arg [M706] | Inact |
| F5bz-DArg-Arg-Aud-Ser-D5F5-Oic-Arg [M958] | 18 µM |
| F5c-DArg-hPhe-Arg [M612] | Inact |
| Dcg-Digl-Oic-Arg [B9490] | >60 µM |
| Pya-hPhe-Arg [M540] | >100 µM |
| F5c-DArg-Arg-Aud-Pac-2Nal-Arg [M698] | 7.1 µM |
| 33Dp-DArg-Arg-Aud-Ser-D5F5-Oic-Arg [M964] | 4 to 8 µM |
| α-DDD-(ApC-F5F-Arg)2 [M930] | Inact |
| Dcg-hPhe-Arg [M558] | 100 µM |
| DDD-(DArg-Arg-Eac-Ser-DIgl-PFF-Arg)2 [M932] | 6.0 µM |
| F5c-p-APa-Arg [M216] | >180 µM |
| F5c-PFF-Arg-NH2 [M812] | 15 µM |

Same assay, conditions: Table 3, cyclic peptides

| Molecule | MTT: ED50 for killing of SCLC strain SHP-77 in vitro |
| --- | --- |
| c[DArg-Arg-Eac-DIgl-PFF-Arg] [M896] | 65 µM |
| c[Suc-DArg-Arg-Eac-Ser-DIgl-PaF]-Arg [M924] | 37 µM |
| c[DArg-Arg-Eac-DF5F-Oic-Arg] [M906] | 45 µM |

System: bradykinin response of isolated guinea pig ileum
Test: Anti-bradykinin activity on isolated guinea pig ileum
Conditions: Table 1; higher numbers indicate higher potency
Experimental: as §1
Male Hartley guinea pigs that had been deprived of food overnight were sacrificed, and sections of terminal ileum, 25 mm in length, were dissected, attached to tissue holders and immersed in 10 ml tissue baths containing Krebs' solution bubbled with 95% O2/5% CO2. Tissues were placed under 1 g tension and incubated for 1 h equilibration. Concentration-effect curves were constructed to bradykinin in the absence and presence of new compounds.

| Molecule | GPI: pA2 for bradykinin antagonist activity on isolated guinea pig ileum |
| --- | --- |
| DDD-( DArg-Arg-Add-Ser-DIgl-Oic-Arg)2 [M862] | 5.6 |
| DDD-(DArg-Arg-Aud-Ser-DF5F-Oic-Arg)2 [M890] | 5.5 |
| Ac-Darg-Arg-Aud-DF5F-Oic-Arg [M868] | 6.5 |
| SBEC-(DArg-Arg-Eac-Ser-DF5F-Nc7G-Arg)2 [M1028] | 6.7 |
| DDD-(DIgl-hPhe-Arg)2 [M776] | 5 |

Same assay, conditions: isolated guinea pig ileum; pD2 of bradykinin is 7.4; higher numbers indicate higher potency

| Molecule | GPI: pA2 for bradykinin antagonist activity on isolated guinea pig ileum |
| --- | --- |
| CN(C)c1cccc2c(S(=O)(=O)NC(Cc3cc(I)c(OCc4c(Cl)cccc4Cl)c(I)c3)C(=O)N(C)C3CC(C)(C)NC(C)(C)C3)cccc12 (centres unmarked) [M666] | 5.0 |
| CC1(C)CC(NC(=O)C(Cc2ccc3ccccc3c2)NC(=O)OC(C)(C)C)CC(C)(C)N1 (centres unmarked) [M288A] | 5.2 |
